Assay results published in patent US11098040B2, “Compounds and methods of use” (Ferro Therapeutics, Inc., priority 2018, dated 2021).
pIC50: −log10 of the molar value. Like-named read-outs stand apart in the source and are kept apart here. Blank lines part the entries; values can stand above or below the molecule they belong to.

Experiments:
AsPC-1 = experiment: Cell viability assay (CellTiter Glo), pancreatic adenocarcinoma AsPC-1; format: cell-based; conditions: Homo sapiens, ASPC1; pancreatic adenocarcinoma, ascites, 96 hours, CellTiter Glo; read-out: IC50 AsPC-1
Protocol: (§1) Cell viability assay was performed to assess the potency of the compounds in human cancer cell lines KP4 (pancreatic ductal adenocarcinoma), MiaPaCa-2 (pancreatic carcinoma), AsPC-1 (pancreatic adenocarcinoma, ascites), 143B (osteosarcoma), and SJSA-1 (osteosarcoma). Selected compounds were also assayed in a human breast epithelial cell line MCF-10A, a nontumorigenic cell line as a control to assess differential activity. Cells at a density of 500-5,000 cells/well were seeded in 96-well plates and incubated at 37° C. overnight. A series of 9 different concentrations of compound stocks (500×) were created by 3-fold serial dilution in DMSO. These compounds were further diluted in culture media and then added to cells so that the final DMSO concentration was equal to 0.25% or less. After 96 hours of incubation, 50 μL of CellTiter Glo reagent (Promega) was added to each well and luminescence was measured after 10 minutes using EnVision (PerkinElmer). Compounds titrated from top concentration of up to 30 μM. The select compounds were tested initially from 30 μM as the top concentration in duplicates (range of 4.6 nM-30 μM). […] Luminescence from cells treated with DMSO alone was set as Max and % of inhibition was calculated as follows: Inhibition %=(Max-Sample value)/Max*100. Data was analyzed using XL-fit software (ID Business Solutions Ltd.). IC50, relative IC50, or % of top inhibition was calculated.
(§2) The results of the assay in the pancreatic cell lines are given in Table 15a for PANC1, Table 15b for MiaPaCa-2, and Table 15c for AsPC-1.

[1] = Whole blood stability, mouse; format: in vitro ADME
Excerpt: (§3) The results of the assay on stability in blood and IC50 values for pancreatic cancer cell line KP4 are given below in Table 24.

[2] = Whole blood stability, human; format: in vitro ADME
Excerpt: as §3

MCF-10A = experiment: Cell viability assay (CellTiter Glo), non-tumorigenic breast epithelial cell line MCF-10A; format: cell-based; conditions: Homo sapiens, 96 hours
Protocol: as §1
Paclitaxel was used as the positive control for cytotoxicity.

KP4 = experiment: Cell viability assay (CellTiter Glo), pancreatic ductal adenocarcinoma KP4; format: cell-based, human; conditions: Homo sapiens, KP-4, 96 h, pancreatic cancer cell line KP4, 96 hours, CellTiter Glo; read-out: IC50 μM KP4
How it was run: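 Luminescent ATP readout (CellTiter Glo) after 96 h compound exposure, normalized to DMSO-treated cells as maximum. Compounds ran in duplicate, nine 3-fold steps from 30 μM down to 4.6 nM, final DMSO ≤0.25%; KP4 plated overnight at 1,000–10,000 cells/well. Outputs: IC50, relative IC50 or % top inhibition.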

MiaPaCa-2 = experiment: Cell viability assay (CellTiter Glo), pancreatic carcinoma MiaPaCa-2; format: cell-based; conditions: Homo sapiens, MIA PaCa-2; pancreatic carcinoma, 96 hours, CellTiter Glo; read-out: IC50 MiaPaCa-2
Protocol: as §1, §2

SJSA-1 [3] = experiment: Cell viability assay (CellTiter Glo), osteosarcoma SJSA-1; format: cell-based; conditions: Homo sapiens, 96 hours
Protocol: as §1
The results of the assay in sarcoma cell lines are given in Table 21a for HT-1080 luc2 (fibrosarcoma expressing a luciferase gene), Table 21b for 143B (osteosarcoma), and Table 21c for SJSA-1 (osteosarcoma).

SJSA-1 [4] = experiment: Cell proliferation (Alamar Blue) assay, SJSA-1 osteosarcoma, with/without ferrostatin; format: cell-based, human; conditions: Homo sapiens; for pIC50: SJSA-1, Cell Line SJSA-1, read-out: IC50; for IC50: SJSA-1, 24 h, Alamar Blue, 24 h
How it was run: (§4)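 Cells seeded at 5000/well, 16-24 h, then exposed 24 h at 37° C to compound, 10-0.0005 μM in 3-fold dilutions, 1% DMSO final. Alamar Blue fluorescence (ex 540/em 590 nm) read after 1.5 h; IC50 from variable-slope sigmoidal fit.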

A431 = experiment: Cell proliferation (Alamar Blue) assay, A431; format: cell-based; conditions: Homo sapiens, A-431; Cell Line A431
Protocol: Cells (SJSA-1, 786-O and A431) were seeded (5000 cells/100 μL/well) in 96-well tissue culture plate and incubated at 37° C./5% CO2 for 16-24 hours. The cells were then treated with compounds (25 μL of 5×). The compound concentrations were 10-0.0005 μM prepared in 3-fold serial dilutions with final DMSO concentration of 1%. The plates were then incubated for 24 h at 37° C./5% CO2 in a moist environment. Then Alamar Blue™ reagent (final concentration 1×-12.5 μL) was added to each well and incubated for 1.5 hours at 37° C./5% CO2. The plates were read on fluorescence reader at 540 nm excitation and 590 nm emission wavelengths. The IC50 values were subsequently determined using a sigmoidal dose-response curve (variable slope) in GraphPad Prism® 5 software.
The cell proliferation assays for the compounds shown Table 25 was performed according to the protocols described herein, including Examples 4 and 6.

786-O = experiment: Cell proliferation (Alamar Blue) assay, 786-O renal cell carcinoma, with/without ferrostatin; format: cell-based; conditions: Homo sapiens; for pIC50: 786-0, Cell Line 786-O, read-out: IC50; for IC50: 786-0, 24 h, Alamar Blue, 24 h
How it was run: as §4

[5] = PK profile, IV plasma concentration and PK parameters; format: in vivo; conditions: Balb/C nude, mouse, iv, 5 mg/kg, 30% Kolliphore EL with 1% poloxamar 407 in water; for AUC(0-t): read-out: AUC0-t; for AUC(0-inf): read-out: AUC0-∞
Protocol: The PK profiles of compounds 148, 149, 150, 156 and 169 are shown below. Compound 156 was formulated in 30% Kolliphor EL (Cremophor EL) in water and compounds 148, 149, 150 and 169 were formulated in 30% Kolliphore EL with 1% poloxamar 407 in water. All compounds were dosed at 5 mg/kg. Blood samples were collected at various time points and analyzed using the method described above.

Compound: COC(=O)[C@H]1Cc2c([nH]c3ccccc23)[C@H](c2ccc(C(=O)N3CCOCC3)cc2)N1C(=O)CCl [Example 26]
pIC50 (MiaPaCa-2): 7.28
pIC50 (MCF-10A): 5.40
pIC50 (SJSA-1 [3]): 6.47

Compound: COC(=O)[C@H]1Cc2c([nH]c3ccccc23)[C@H](c2ccc(C(=O)NCCN3CCOCC3)cc2)N1C(=O)CCl [Example 27]
pIC50 (MiaPaCa-2): 6.33
pIC50 (MCF-10A): 5.03
pIC50 (SJSA-1 [3]): 5.85

Compound: COC(=O)[C@H]1Cc2c([nH]c3ccccc23)[C@H](c2ccc(C(=O)OCC34CC(F)(C3)C4)cc2)N1C(=O)CCl [Compound 76]
pIC50 (AsPC-1): 7.46
pIC50 (MCF-10A): 5.95

Compound: COC(=O)[C@H]1Cc2c([nH]c3ccc(Br)cc23)[C@H](c2ccc(C(=O)OCC3CC3)cc2)N1C(=O)CCl [Example 87]
pIC50 (AsPC-1): 7.66
pIC50 (MCF-10A): 6.34

Compound: COC(=O)[C@H]1Cc2c([nH]c3ccccc23)[C@H](c2ccc(S(=O)(=O)NCC3CC3)cc2)N1C(=O)CCl [Example 82]
pIC50 (AsPC-1): 7.21
pIC50 (MCF-10A): 5.43

Compound: C#CC(=O)N1[C@@H](CCCC)Cc2c([nH]c3ccccc23)[C@@H]1c1ccc(NC23CC4CC(CC(C4)C2)C3)cc1 [Compound 148, 1-((1 S,3S)-1-(4-(((3R,5R,7R)-adamantan-1-yl)amino)phenyl)-3-butyl-1,3,4,9-tetrahydro-2H-pyrido[3,4-b]indol-2-yl)prop-2-yn-1-one]
pIC50 (SJSA-1 [4]): 8.10
pIC50 (A431): 5.44
pIC50 (786-O): 8.22
C0 [5]: 40600 ng/mL
Cmax [5]: 33000 ng/mL
clearance [5]: 4.79 mL/min/kg
AUC(0-t) [5]: 17200 ng·h/mL
AUC(0-inf) [5]: 17400 ng·h/mL
Vd ([5]; read-out: Vd): 2.39 L/kg
Vd ([5]; read-out: Vss): 0.47 L/kg
half-life ([5]; time points considered 4-24 h): 5.76 h

Compound: COC(=O)[C@H]1Cc2c([nH]c3ccccc23)[C@H](c2ccc(S(=O)(=O)N3CC(O)C3)cc2)N1C(=O)CCl [Example 37]
pIC50 (MiaPaCa-2): 6.55
pIC50 (MCF-10A): 5.26
pIC50 (SJSA-1 [3]): 6.20

Compound: CCCC[C@H]1Cc2c([nH]c3ccccc23)[C@H](c2ccc(NC34CC5CC(CC(C5)C3)C4)cc2)N1C(=O)CCl [Compound 149, 1-((1S,3S)-1-(4-(((3R,5R,7R)-adamantan-1-yl)amino)phenyl)-3-butyl-1,3,4,9-tetrahydro-2H-pyrido[3,4-b]indol-2-yl)-2-chloroethan-1-one]
pIC50 (SJSA-1 [4]): 8.70
pIC50 (A431): 5.42
pIC50 (786-O): 9.00
C0 [5]: 29400 ng/mL
Cmax [5]: 22000 ng/mL
clearance [5]: 13 mL/min/kg
AUC(0-t) [5]: 6540 ng·h/mL
AUC(0-inf) [5]: 6550 ng·h/mL
Vd ([5]; read-out: Vd): 2.34 L/kg
Vd ([5]; read-out: Vss): 0.53 L/kg
half-life ([5]; time points considered 2-8 h): 2.12 h

Compound: COC(=O)[C@H]1Cc2c([nH]c3ccccc23)[C@H](c2ccc(S(=O)(=O)N3CCC(O)CC3)cc2)N1C(=O)CCl [Example 35]
pIC50 (MiaPaCa-2): 6.93
pIC50 (MCF-10A): 5.38
pIC50 (SJSA-1 [3]): 6.50

Compound: CCCC[C@H]1Cc2c([nH]c3ccccc23)[C@H](c2ccc(S(=O)(=O)NC3CC3)cc2F)N1C(=O)CCl [Compound 169, 4-((1S,3S)-3-butyl-2-(2-chloroacetyl)-2,3,4,9-tetrahydro-1H-pyrido[3,4-b]indol-1-yl)-N-cyclopropyl-3-fluorobenzenesulfonamide]
IC50 (SJSA-1 [4]; 2 μM ferrostatin, read-out: SJSA-1 (IC50, μM) 2 μM Ferrostatin): > 10 µM
IC50 (SJSA-1 [4]; without ferrostatin, read-out: SJSA-1 (IC50, μM) Without Ferrostatin): 0.001 µM
pIC50 (SJSA-1 [4]): 9.00
pIC50 (A431): 5.41
IC50 (786-O; 2 μM ferrostatin, read-out: 786-O (IC50, μM) 2 μM Ferrostatin): 4.96 µM
IC50 (786-O; without ferrostatin, read-out: 786-O (IC50, μM) Without Ferrostatin): 0.003 µM
pIC50 (786-O): 8.52
C0 [5]: 5380 ng/mL
Cmax [5]: 2220 ng/mL
clearance [5]: 109 mL/min/kg
AUC(0-t) [5]: 760 ng·h/mL
AUC(0-inf) [5]: 762 ng·h/mL
Vd ([5]; read-out: Vd): 2.39 L/kg
Vd ([5]; read-out: Vss): 0.98 L/kg
half-life ([5]; time points considered 0.25-2 h (1 h excluded)): 0.25 h

The next lines start with results.

pIC50 (AsPC-1): 6.93
Whole Blood Stability % Remaining at 37° C. Mouse ([1]; 0 min): 100.0%
Whole Blood Stability % Remaining at 37° C. Mouse ([1]; 30 min): 0.0%
Whole Blood Stability % Remaining at 37° C. Mouse ([1]; 60 min): 0.0%
Whole Blood Stability % Remaining at 37° C. Human ([2]; 0 min): 100.0%
Whole Blood Stability % Remaining at 37° C. Human ([2]; 30 min): 63.8%
Whole Blood Stability % Remaining at 37° C. Human ([2]; 60 min): 33.5%
IC50 (KP4): < 0.01 µM
Compound: [2H]C([2H])([2H])OC(=O)[C@H]1Cc2c([nH]c3ccccc23)[C@H](c2ccc(C(=O)OC)cc2)N1C(=O)CCl [CC]
pIC50 (MCF-10A): 5.77

pIC50 (AsPC-1): 7.13
Compound: COC(=O)c1ccc([C@H]2c3[nH]c4ccccc4c3C[C@H](C)N2C(=O)CCl)cc1 [Example 77]
pIC50 (MCF-10A): 6.05

pIC50 (AsPC-1): 7.55
Compound: COC(=O)[C@H]1Cc2c([nH]c3ccccc23)[C@H](c2ccc(C(=O)OCC3CC3)cc2)N1C(=O)CCl [Example 75]
pIC50 (MCF-10A): 5.89

pIC50 (AsPC-1): 7.54
Compound: COC(=O)[C@H]1Cc2c([nH]c3ccccc23)[C@H](c2ccc(C(=O)OCC3CCC3)cc2)N1C(=O)CCl [Example 85]
pIC50 (MCF-10A): 6.30

pIC50 (AsPC-1): 7.68
Compound: COC(=O)[C@H]1Cc2c([nH]c3ccccc23)[C@H](c2ccc(C(=O)OCC3CCCC3)cc2)N1C(=O)CCl [Example 86]
pIC50 (MCF-10A): 6.48

pIC50 (AsPC-1): 7.14
Compound: COC(=O)[C@H]1Cc2c([nH]c3ccccc23)[C@H](c2ccc(C(=O)NCC3CC3)cc2)N1C(=O)CCl [Example 81]
pIC50 (MCF-10A): 5.58

pIC50 (AsPC-1): 7.52
Compound: COC(=O)c1ccc([C@H]2c3[nH]c4ccc(Br)cc4c3C[C@H](C(=O)OC)N2C(=O)CCl)cc1 [Example 88]
pIC50 (MCF-10A): 6.34

pIC50 (AsPC-1): 6.88
Compound: [2H]C([2H])(Cl)C(=O)N1[C@@H](c2ccc(C(=O)OC)cc2)c2[nH]c3ccccc3c2C[C@@H]1C(=O)OC [Example 90]
pIC50 (MCF-10A): 5.83

pIC50 (AsPC-1): 6.97
Compound: C=CCOC(=O)c1ccc([C@H]2c3[nH]c4ccccc4c3C[C@H](C(=O)OC)N2C(=O)CCl)cc1 [Example 74]
pIC50 (MCF-10A): 5.18
